According to BindingDB's records for doi:10.1007/s00044-011-9882-z (n/a, 2012):

Target: Transcription factor Sp1 (Homo sapiens, UniProt P08047)
Assay: Inhibition of Sp1 (unknown origin) by luciferase reporter gene assay

Chain of Transcription factor Sp1 (P08047 whole entry): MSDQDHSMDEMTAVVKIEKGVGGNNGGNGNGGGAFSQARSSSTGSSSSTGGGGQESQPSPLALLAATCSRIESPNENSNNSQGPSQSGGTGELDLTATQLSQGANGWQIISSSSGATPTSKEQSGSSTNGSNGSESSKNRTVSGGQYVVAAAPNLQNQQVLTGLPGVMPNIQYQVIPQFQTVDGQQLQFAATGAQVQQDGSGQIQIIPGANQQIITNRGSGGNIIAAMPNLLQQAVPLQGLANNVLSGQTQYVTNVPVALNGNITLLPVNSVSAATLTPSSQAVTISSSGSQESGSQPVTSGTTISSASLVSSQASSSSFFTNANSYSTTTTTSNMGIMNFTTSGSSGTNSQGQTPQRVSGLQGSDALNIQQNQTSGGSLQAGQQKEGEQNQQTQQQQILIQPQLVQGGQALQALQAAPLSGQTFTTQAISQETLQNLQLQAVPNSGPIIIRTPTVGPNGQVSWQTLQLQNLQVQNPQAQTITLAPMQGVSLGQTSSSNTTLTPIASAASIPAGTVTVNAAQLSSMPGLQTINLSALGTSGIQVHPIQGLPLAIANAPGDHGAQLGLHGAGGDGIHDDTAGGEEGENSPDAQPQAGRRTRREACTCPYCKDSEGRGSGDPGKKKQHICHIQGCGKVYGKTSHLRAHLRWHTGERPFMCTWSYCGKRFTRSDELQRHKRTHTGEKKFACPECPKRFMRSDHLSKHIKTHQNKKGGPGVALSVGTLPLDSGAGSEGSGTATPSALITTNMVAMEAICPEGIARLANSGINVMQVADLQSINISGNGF

Q: How did the IC50 turn out when `O=C(N/N=C/c1ccccc1)c1ccc(F)cc1` was run?
A: Its IC50 is 57.7 µM.

Q: `C=C1C(=O)O[C@H]2[C@H]1CC/C(C)=C/CC[C@@]1(C)O[C@@H]21` [PARTHENOLIDE] was tested. Which IC50 did it give?
A: The IC50 was 30.2 µM.
